Measured values reported in patent publication US8445677B2, “Substituted pyrimidyl guanidine derivatives having anticancer activity” (University of Southern California, priority 2008, dated 2013).

Experiments:
Assay in all cases: MTT cytotoxicity assay (Example 1)
[1] = test system: HEY; type: cell-based, human; settings: 72 h
Text: (§1) Human breast cancer cells MDA-MB-435 were purchased from the American Type Culture Collection (Manassas, Va.). The HCT116 p53+/+ and HCT116 p53−/− cells were kindly provided by Dr. Bert Vogelstein (Johns Hopkins Medical Institutions, Baltimore, Md.). The human ovarian carcinoma cell line (HEY) which is naturally resistant to cisplatin, was kindly provided by Dr. Louis Dubeau, University of Southern California (USC) Norris Cancer Center, and NIH3T3 normal mouse fibroblast cells were kindly provided by Dr. Michael Press from USC. HEY and NIH3T3 cells were maintained as monolayer cultures in RPMI, HCT 116 cells in McCoy1s5A media and MDA-MB 435 in DMEM. Media were purchased from (Mediatech, Virginia) and supplemented with 10% fetal bovine serum (Gemini-Bioproducts, Woodland, Calif.), 2 mM L-glutamine and 5% Penicillin/streptomycin from Bio whittaker were purchased from VWR. Cells were incubated at 37° C. in a humidified atmosphere of 5% CO2. To remove the adherent cells from the flask for passaging and counting, cells were washed with PBS without calcium or magnesium, incubated with a small volume of 0.25% trypsin-EDTA solution (Sigma-Aldrich, St. Louis, Mo.) for 5-10 min, and washed with culture medium and centrifuged. All experiments were performed using cells at exponential growth stage. Cells were routinely checked for mycoplasma contamination using a PCR-based assay (Stratagene, Tex., USA).
(§2) Stock solutions (10 mM) of all compounds were prepared in DMSO and stored at −20° C. Further dilutions were made fresh in PBS or cell-culture media right before cell treatment.
(§3) Cytotoxicity was assessed by a 3-(4,s-dimethylthiazol-2-yl)-2,5-diphenyltetrazolium bromide (MTT) assay as previously described.^24 Briefly, cells were seeded in 96-well microtiter plates and allowed to attach overnight. Cells were subsequently treated with continuous exposure to the corresponding drug for 72 h. A MTT solution (at a final concentration of 0.5 mglml) was added to each well, and cells were incubated for 4 h at 37° C. After removal of the medium, DMSO was added and the absorbance was read at 570 nm. All assays were done in triplicate. The IC50 was then determined for each drug from a plot of log (drug concentration) versus percentage of cells killed.

[2] = test system: MDA-MB-435; type: cell-based, human
Text: as §1, §2, §3

[3] = test system: HCT116 p53+/+; type: cell-based; settings: MTT, 72 h
Text: as §1, §2, §3

[4] = test system: HCT116 p53−/−; type: cell-based; settings: MTT, 72 h
Text: as §1, §2, §3

[5] = test system: NIH3T3; type: cell-based, mouse
Text: as §1, §2, §3

SMILES: O=C(O)c1cc(-c2ccc(C=NNc3nc4nonc4nc3Nc3cccc(Br)c3)o2)ccc1O [Compound 18]
- IC50 ([1]; Homo sapiens): > 10 µM
- IC50 ([2]; Homo sapiens, MDA-MB-435, 72 h): > 10 µM
- IC50 ([3]; Homo sapiens, HCT-116, 72 h): > 10 µM
- IC50 ([4]; Homo sapiens, HCT-116, 72 h): > 10 µM
- IC50 ([5]; Mus musculus, NIH3T3, 72 h): 11 µM

SMILES: Cc1cccc(Nc2nc3nonc3nc2NN=Cc2ccc(-c3cccc(C(=O)O)c3)o2)c1 [Compound 20]
- IC50 ([1]; Homo sapiens): 8 µM
- IC50 ([2]; Homo sapiens, MDA-MB-435, 72 h): > 10 µM
- IC50 ([3]; Homo sapiens, HCT-116, 72 h): > 10 µM
- IC50 ([4]; Homo sapiens, HCT-116, 72 h): > 10 µM
- IC50 ([5]; Mus musculus, NIH3T3, 72 h): 10 µM

SMILES: c1coc(CNc2nc3nonc3nc2NCc2ccco2)c1 [Compound 21]
- IC50 ([1]; Homo sapiens): > 20 µM
- IC50 ([2]; Homo sapiens, MDA-MB-435, 72 h): > 20 µM
- IC50 ([3]; Homo sapiens, HCT-116, 72 h): > 20 µM
- IC50 ([4]; Homo sapiens, HCT-116, 72 h): > 10 µM
- IC50 ([5]; Mus musculus, NIH3T3, 72 h): > 10 µM

SMILES: O=C(O)c1ccccc1Nc1nc2nonc2nc1Nc1ccccc1C(=O)O [Compound 22]
- IC50 ([1]; Homo sapiens): > 10 µM
- IC50 ([2]; Homo sapiens, MDA-MB-435, 72 h): > 10 µM
- IC50 ([3]; Homo sapiens, HCT-116, 72 h): > 10 µM
- IC50 ([4]; Homo sapiens, HCT-116, 72 h): > 10 µM
- IC50 ([5]; Mus musculus, NIH3T3, 72 h): > 10 µM

SMILES: c1cc(N2CCOCC2)ccc1Nc1nc2nonc2nc1Nc1ccc(N2CCOCC2)cc1 [Compound 23]
- IC50 ([1]; Homo sapiens): > 10 µM
- IC50 ([2]; Homo sapiens, MDA-MB-435, 72 h): > 10 µM
- IC50 ([3]; Homo sapiens, HCT-116, 72 h): > 10 µM
- IC50 ([4]; Homo sapiens, HCT-116, 72 h): > 10 µM
- IC50 ([5]; Mus musculus, NIH3T3, 72 h): > 10 µM

SMILES: C1C2CC3CC1CC(C2)C3Nc1nc2nonc2nc1NC1C2CC3CC(C2)CC1C3 (stereo not drawn) [Compound 24]
- IC50 ([1]; Homo sapiens): 8 ± 1.7 µM
- IC50 ([2]; Homo sapiens, MDA-MB-435, 72 h): 9 µM
- IC50 ([3]; Homo sapiens, HCT-116, 72 h): 6 µM
- IC50 [3]: 8 µM
- IC50 ([4]; Homo sapiens, HCT-116, 72 h): 9 ± 1 µM
- IC50 ([5]; Mus musculus, NIH3T3, 72 h): 9 µM

SMILES: CCCn1c(=O)c(C(=O)NNC(=O)COc2ccccc2)c(O)c2ccccc21 [Compound 25]
- IC50 ([1]; Homo sapiens): > 10 µM
- IC50 ([2]; Homo sapiens, MDA-MB-435, 72 h): > 20 µM
- IC50 ([3]; Homo sapiens, HCT-116, 72 h): 10 µM
- IC50 ([4]; Homo sapiens, HCT-116, 72 h): > 10 µM
- IC50 ([5]; Mus musculus, NIH3T3, 72 h): > 10 µM

SMILES: CCCCCCc1nc2ccccc2c(=O)n1NC(=O)c1c(O)c2ccccc2n(CC)c1=O [Compound 26]
- IC50 ([1]; Homo sapiens): 20 µM
- IC50 ([2]; Homo sapiens, MDA-MB-435, 72 h): > 20 µM
- IC50 ([3]; Homo sapiens, HCT-116, 72 h): > 20 µM
- IC50 ([4]; Homo sapiens, HCT-116, 72 h): > 10 µM
- IC50 ([5]; Mus musculus, NIH3T3, 72 h): 20 µM

SMILES: CCCc1nc2ccccc2c(=O)n1NC(=O)c1c(O)c2cccc3c2n(c1=O)CCC3 [Compound 27]
- IC50 ([1]; Homo sapiens): > 20 µM
- IC50 ([2]; Homo sapiens, MDA-MB-435, 72 h): > 20 µM
- IC50 ([3]; Homo sapiens, HCT-116, 72 h): > 20 µM
- IC50 ([4]; Homo sapiens, HCT-116, 72 h): > 10 µM
- IC50 ([5]; Mus musculus, NIH3T3, 72 h): 12 µM

SMILES: O=C(Nn1c(Cc2ccccc2)nc2ccccc2c1=O)c1c(O)c2cccc3c2n(c1=O)CCC3 [Compound 28]
- IC50 [1]: 15 µM
- IC50 ([1]; Homo sapiens): 19 µM
- IC50 ([2]; Homo sapiens, MDA-MB-435, 72 h): > 10 µM
- IC50 ([3]; Homo sapiens, HCT-116, 72 h): > 20 µM
- IC50 ([4]; Homo sapiens, HCT-116, 72 h): > 10 µM
- IC50 ([5]; Mus musculus, NIH3T3, 72 h): > 10 µM

SMILES: CCCn1c(=O)c(C(=O)Nc2nnc(CC(C)C)s2)c(O)c2ccccc21 [Compound 29]
- IC50 ([1]; Homo sapiens): > 20 µM
- IC50 ([2]; Homo sapiens, MDA-MB-435, 72 h): > 20 µM
- IC50 ([3]; Homo sapiens, HCT-116, 72 h): > 20 µM
- IC50 ([4]; Homo sapiens, HCT-116, 72 h): > 10 µM
- IC50 ([5]; Mus musculus, NIH3T3, 72 h): > 10 µM

SMILES: CCCCn1c(=O)c(C(=O)Nc2nnc(C)s2)c(O)c2ccccc21 [Compound 30]
- IC50 [1]: 14 µM
- IC50 ([1]; Homo sapiens): 10 µM
- IC50 ([2]; Homo sapiens, MDA-MB-435, 72 h): 7 µM
- IC50 ([3]; Homo sapiens, HCT-116, 72 h): 6 ± 3 µM
- IC50 ([4]; Homo sapiens, HCT-116, 72 h): 8 µM
- IC50 ([5]; Mus musculus, NIH3T3, 72 h): 5 µM

SMILES: C=CCn1c(=O)c(C(=O)Nc2nc(CC(=O)OCC)cs2)c(O)c2ccccc21 [Compound 31]
- IC50 ([1]; Homo sapiens): > 10 µM
- IC50 ([2]; Homo sapiens, MDA-MB-435, 72 h): > 10 µM
- IC50 ([3]; Homo sapiens, HCT-116, 72 h): 20 µM
- IC50 ([4]; Homo sapiens, HCT-116, 72 h): > 10 µM
- IC50 ([5]; Mus musculus, NIH3T3, 72 h): > 10 µM

SMILES: CCCCn1c(=O)c(C(=O)Nc2nc(CC(=O)OCC)cs2)c(O)c2ccccc21 [Compound 32]
- IC50 ([1]; Homo sapiens): 15 µM
- IC50 ([2]; Homo sapiens, MDA-MB-435, 72 h): 20 µM
- IC50 ([3]; Homo sapiens, HCT-116, 72 h): 10 ± 1 µM
- IC50 ([4]; Homo sapiens, HCT-116, 72 h): > 10 µM
- IC50 ([5]; Mus musculus, NIH3T3, 72 h): 8 µM

SMILES: C/C(=N\C(=N)Nc1nc(C)c2cc(C)ccc2n1)c1ccccc1C(=O)O [Compound 33]
- IC50 [1]: 3 µM
- IC50 ([1]; Homo sapiens): 5 µM
- IC50 ([2]; 72 h): 18 µM
- IC50 ([2]; Homo sapiens, MDA-MB-435, 72 h): 17 µM
- IC50 ([3]; Homo sapiens, HCT-116, 72 h): 18 µM
- IC50 ([4]; Homo sapiens, HCT-116, 72 h): 5 µM
- IC50 ([5]; Mus musculus, NIH3T3, 72 h): 14 µM

SMILES: CCOc1ccc2nc(NC(=N)/N=C(\C)c3ccccc3C(=O)O)nc(C)c2c1 [Compound 34]
- IC50 ([1]; Homo sapiens): 7 µM
- IC50 ([2]; Homo sapiens, MDA-MB-435, 72 h): > 20 µM
- IC50 ([3]; Homo sapiens, HCT-116, 72 h): 20 µM
- IC50 ([4]; Homo sapiens, HCT-116, 72 h): 10 µM
- IC50 ([5]; Mus musculus, NIH3T3, 72 h): > 10 µM

SMILES: COC(=O)/C=C1/N=C(Nc2nc3cc(C)ccc3o2)NC1=O [Compound 35]
- IC50 [1]: 2 µM
- IC50 ([1]; Homo sapiens): 3.5 µM
- IC50 ([2]; Homo sapiens, MDA-MB-435, 72 h): 6 µM
- IC50 ([3]; Homo sapiens, HCT-116, 72 h): 5 µM
- IC50 ([4]; Homo sapiens, HCT-116, 72 h): 4.2 µM
- IC50 [4]: 3.4 µM
- IC50 ([5]; 72 h): 6 µM
- IC50 ([5]; Mus musculus, NIH3T3, 72 h): 11 µM
